Source: US11505592B2, “Diagnosis and therapy of multiple sclerosis” (PRINDEX S.R.L., priority 2015, dated 2022)
Bridges are numbered along the chain shown (N, C = ends). Where no end group is shown, it is not given here. dibromoxylene = α,α'-dibromoxylene, used to cyclize the peptide by reaction with its two cysteines

How the values were obtained:
MS sera = experiment: PEPSCAN-based ELISA, binding of MS sera to library peptides; set-up: species or system human; settings: ELISA binding value, MS sera n = 9
Excerpt: (§1) The linear and CLIPS peptides are synthesized based on the amino acid sequence of the target protein using standard Fmoc-chemistry and deprotected using […] with scavengers. The constrained peptides are synthesized on chemical scaffolds in order to reconstruct conformational epitopes, using Chemically Linked Peptides on Scaffolds (CLIPS) technology (Timmerman et al. (2007). For example, the single looped peptides are synthesized containing a dicysteine, which was cyclized by treating with alpha, alpha′-dibromoxylene and the size of the loop is varied by introducing cysteine residues at variable spacing. If other cysteines besides the newly introduced cysteines are present, they are replaced by alanine. The side-chains of the multiple cysteines in the peptides are coupled to CLIPS templates by reacting onto credit-card format polypropylene PEPSCAN cards (455 peptide formats/card) with a 0.5 mM solution of CLIPS template such as 1,3-bis (bromomethyl) benzene in ammonium bicarbonate (20 mM, pH 7.9)/acetonitrile (1:1(v/v)). The cards are gently shaken in the solution for 30 to 60 minutes while completely covered in solution. Finally, the cards are washed extensively with excess of H2O and sonicated in distrupt-buffer containing 1 percent SDS/0.1 percent beta-mercaptoethanol in PBS (pH 7.2) at 70° C. for 30 minutes, followed by sonication in H2O for another 45 minutes.
(§2) The binding of antibody to each peptide is tested in a PEPSCAN-based ELISA. The 455-well credit card format polypropylene cards containing the covalently linked peptides are incubated with primary antibody solution for example consisting of 1/1000 diluted serum in blocking solution, for example 4% horse serum, 5% ovalbumin (w/v) in PBS/1% Tween. After washing, the peptides are incubated with a 1/1000 dilution of antibody peroxidase conjugate for one hour at 25° C. After washing, the peroxidase substrate 2,2′-azino-di-3-ethylbenzthiazoline sulfonate (ABTS) and 2 microlitres of 3 percent H2O2 are added. After one hour, the color development are measured. The color development are quantified with a charge coupled device (CCD)-camera and an image processing system (Slootstra et al., 1996).
(§3) The raw data are optical values obtained by a CCD-camera calibrated to export absorption values compatible with a standard 96-well plate ELISA-reader. First the CCD-camera makes a picture of the card before peroxidase coloring and then again a picture after the peroxidase coloring. These two pictures are substracted from each other yielding a binding value for each peptide.
(§4) All peptides have been synthesized in a peptide array format and the binding of 20 different sera to all peptide libraries were measured in an ELISA based set up following the procedure described in detail in the method section “Peptide synthesis and screening assays”. In particular 2 sets of experiments were performed on the 2 libraries by using 2 different dilutions of the human patients sera. In the first set of experiment the 20 sera were used at 1:2500 dilutions, while in the second experiment the dilution of the sera was 1:1000. The binding of the different sera to all peptides was quantified and analyzed in detail (Tables 1 and 2, FIGS. 15A, B, C, D and […]

CTRL sera = experiment: PEPSCAN-based ELISA, binding of control (CTRL) sera to library peptides; set-up: species or system human; settings: ELISA binding value, CTRLs n = 10
Excerpt: as §1, §2, §3, §4

| Sequence | MEAN MS (MS sera; 5HT2A receptor library) | MEAN CTRL (CTRL sera; 5HT2A receptor library) | MEAN MS (MS sera; NOX2 library) | MEAN CTRL (CTRL sera; NOX2 library) |
| --- | --- | --- | --- | --- |
| CLSEENTSLSSTTNCMDILSEENTSLSSC [Peptide 39] | 303.50 | 184.40 |  |  |
| LNFARKRIKNAAGGL [SEQ ID NO: 91] |  |  | 354.778 | 187.85 |
| CNDDTRLYSNDFNSCMDILSEENTSLSSC [Peptide 24] | 350.67 | 196.45 |  |  |
| CQKISEWGKIKESPIPCVSEQKISEWGKIKESC [SEQ ID NO: 98] |  |  | 815.972 | 450.975 |
| CVSEQKISEWGKIKESCTVSEQKISEWGKIKEC [SEQ ID NO: 142] |  |  | 760.333 | 446.5 |
| CSTTNSLMQLNDDTCMDILSEENTSLSSC [Peptide 11] | 321.28 | 186.85 |  |  |
| CNSDPYSVALSELGDRCVSEQKISEWGKIKESC [SEQ ID NO: 130] |  |  | 764.528 | 434.925 |
| CQKISEWGKIKESPIPCVHNITVSEQKISEWGC [SEQ ID NO: 149] |  |  | 442.611 | 263.25 |
| CHGAERIVRGQTAESLCQNESYLNFARKRIKNC [SEQ ID NO: 73] |  |  | 748.111 | 407.2 |
| CLNFARKRIKNAAGGLC [SEQ ID NO: 92] |  |  | 691.444 | 367 |
| CLTILYGYRWPLPSCMDILSEENTSLSSC [Peptide 2] | 421.56 | 228.85 |  |  |
| CGDRQNESYLNFARKRCVSEQKISEWGKIKESC [SEQ ID NO: 152] |  |  | 805.278 | 461.6 |
| CRVNNSDPYSVALSELCVSEQKISEWGKIKESC [SEQ ID NO: 151] |  |  | 731.111 | 422.275 |
| CDSKVFKEGSSLLACSGEANTSDAFNWTC [Peptide 37] | 623.06 | 333.75 |  |  |
| STTNSLMQLNAATRL [Peptide 31] | 611.83 | 385.15 |  |  |
| CNITVSEQKISEWGKICSYLNFARKRIKNPEGC [SEQ ID NO: 99] |  |  | 738.444 | 397.7 |
| CDSKVFKEGSSLLACSENRTNLSSEGSLC [Peptide 46] | 512.94 | 296.70 |  |  |
| CMDILSEENTSLSSCSKESSNEDVIGALC [Peptide 44] | 432.33 | 266.55 |  |  |
| QNESYLNFARKRIKN [SEQ ID NO: 63] |  |  | 610.778 | 309.65 |
| CNFARKRIKNPEGGLYCSYLNFARKRIKNPEGC [SEQ ID NO: 97] |  |  | 752.333 | 416.6 |
| CKISEWGKIKC [SEQ ID NO: 108] |  |  | 672.833 | 367.95 |
| ESYLNFARK [SEQ ID NO: 107] |  |  | 535.667 | 296.3 |
| CLYGYRWPLPSKLSCYSNDFNSGEANTSC [Peptide 32] | 555.67 | 288.50 |  |  |
| CNFARKRIKNPEGGLYCQNESYLNFARKRIKNC [SEQ ID NO: 65] |  |  | 801.056 | 410.85 |
| CLGDRQNESYLAAARKC [SEQ ID NO: 145] |  |  | 698.944 | 402.85 |
| NITVCEQKISAAGKI [SEQ ID NO: 96] |  |  | 564.500 | 314.2 |
| LGDRQNESYLAAARK [SEQ ID NO: 127] |  |  | 478.278 | 262.75 |

| Sequence | MEAN MS (MS sera; 5HT2A receptor library) | MEAN CTRL (CTRL sera; 5HT2A receptor library) | MEAN MS (MS sera; NOX2 library) | MEAN CTRL (CTRL sera; NOX2 library) |
| --- | --- | --- | --- | --- |
| CERIVRGQTAESLAVHCQNESYLNFARKRIKNC [SEQ ID NO: 75] |  |  | 833.444 | 455.55 |
| CQKISEWGKIKESPIPCQNESYLNFARKRIKNC [SEQ ID NO: 69] |  |  | 855.111 | 458.3 |
| KISEWGKIK [SEQ ID NO: 83] |  |  | 404.500 | 223.9 |
| CLTILYGYRWPLPSCLYGYRWPLPSKLSC [Peptide 40] | 879.72 | 508.45 |  |  |
| CLQDDSKVFKEGSSCKESSNEDVIGALLC [Peptide 48] | 632.28 | 373.15 |  |  |
| CHGAERIVRGQTAESLCSYLNFARKRIKNPEGC [SEQ ID NO: 82] |  |  | 755.722 | 417.5 |
| CQKISEWGKIKESPIPCTVSEQKISEWGKIKEC [SEQ ID NO: 93] |  |  | 846.833 | 476.45 |
| CVRGQTAESLAVHNITCQNESYLNFARKRIKNC [SEQ ID NO: 66] |  |  | 824.500 | 438.35 |
| CNITVSEQKISEWGKICQNESYLNFARKRIKNC [SEQ ID NO: 81] |  |  | 770.889 | 408.8 |
| LGDRQNESYLNFARK [SEQ ID NO: 104] |  |  | 457.556 | 252.4 |
| CLYGYRWPLPSKLSCMDILSEENTSLSSC [Peptide 4] | 449.78 | 246.80 |  |  |
| CLNFARKRIKC [SEQ ID NO: 87] |  |  | 713.333 | 374.7 |
| TILYGYRWPLPSKLC [Peptide 29] | 651.50 | 378.20 |  |  |
| CQNESYLNFARKRIKNCSYLNFARKRIKNPEGC [SEQ ID NO: 135] |  |  | 711.556 | 396.7 |
| CITVSEQKISEAAKIKC (linker 1-17 via dibromoxylene (inferred)) [SEQ ID NO: 147] |  |  | 703.000 | 383.25 |
| CESLAVHNITVSEQKICSYLNFARKRIKNPEGC [SEQ ID NO: 79] |  |  | 639.611 | 357.1 |
| GDRQNESYLNAGRKR [SEQ ID NO: 68] |  |  | 547.278 | 294.2 |
| CMQLNDDTRLYSNDCMDILSEENTSLSSC [Peptide 9] | 379.67 | 212.40 |  |  |
| NFARKRIKN [SEQ ID NO: 58] |  |  | 613.833 | 288.95 |
| CRQNESYLNFARKRIKC [SEQ ID NO: 95] |  |  | 653.944 | 350.1 |
| CRVNNSDPYSVALSELCQNESYLNFARKRIKNC [SEQ ID NO: 137] |  |  | 743.167 | 398.05 |
| CAVHNITVSEQKISEWCQNESYLNFARKRIKNC [SEQ ID NO: 126] |  |  | 685.667 | 370.15 |
| CAVHNITVSEQKISEWCSYLNFARKRIKNPEGC [SEQ ID NO: 133] |  |  | 648.556 | 375.55 |
| QDDSKVFKEGAALLA [Peptide 33] | 439.11 | 263.70 |  |  |
| CLTILYGYRWPLPSKLC [Peptide 35] | 792.94 | 475.00 |  |  |
| CVRGQTAESLAVHNITCVHNITVSEQKISEWGC [SEQ ID NO: 148] |  |  | 445.278 | 263.5 |
